Results from patent US20220233708A1, “ANTIBODY-DRUG CONJUGATE, INTERMEDIATE THEREOF, PREPARATION METHOD THEREFOR AND APPLICATION THEREOF” (priority 2019, published 2022).
Starred links: 1 amine or outer side, 2 acyl side, 3 side chain; linkers in the order of their positions; H or OH if unused. Non-standard residues stand in square brackets, D forms with d. Residues, ends and D or L forms follow the SMILES beside them. *: point of attachment. Exatecan = CC[C@@]1(O)C(=O)OCc2c1cc1n(c2=O)Cc2c-1nc1cc(F)c(C)c3c1c2[C@@H](N*)CC3; X2 = CC[C@@]1(O)C(=O)OC(=O)C2=C1C=C1c3nc4cc(F)c(C)c5c4c(c3CN1C2)[C@@H](N*)CC5; Hexanoyl(6-maleimido) = O=C1C=CC(=O)N1CCCCCC(=O)*; X3 = O=C1C=CC(=O)N1CC1CCC(C(=O)*)CC1; X1 = O=C1C=C(Br)C(=O)N1CCCCCC(=O)*; NHCH2OCH2CO = O=C(COCN[*:1])[*:2]

What was measured:
Type in all cases: physicochemical
anti-B7-H3 antibody P2E5 = assay: Coupling of linker-drug conjugates with P2E5; settings: coupling with P2E5, highest DAR (excessive coupling)
Method: (§1) The anti-B7-H3 antibody P2E5, anti-Claudin18.2 antibody IMAB362, and anti-HER2 antibody Trastuzumab (concentration was 15 mg/mL) were replaced into 50 mM PB/1.0 mM EDTA buffer (pH 7.0) by a G25 desalting column, respectively. 12 equivalents of TECP was added and the mixture was stirred at 37° C. for 2 hours to fully open the disulfide bonds between the antibody chains. Then phosphoric acid was used to adjust the pH of the reduced antibody solution to 6.0, and the temperature of the water bath was lowered to 25° C. for coupling reaction. […] After the reaction was completed, the sample was filtered with a 0.22 μm membrane. Uncoupled small molecules were purified and removed by a tangential flow ultrafiltration system. The buffer was 50 mM PB/1.0 mM EDTA solution (pH 6.0). After purification, sucrose (final concentration was 6%) was added, and the mixture was stored in a refrigerator at −20° C. The UV method was used to measure the absorbance values at 280 nm and 370 nm respectively, and the DAR value was calculated.

[1] = test system: anti-Claudin18.2 antibody IMAB362; assay: Coupling of linker-drug conjugates with IMAB362; settings: coupling with IMAB362, highest DAR (excessive coupling)
Method: as §1

[2] = test system: anti-HER2 antibody Trastuzumab; assay: Coupling of linker-drug conjugates with Trastuzumab; settings: highest DAR (excessive coupling)
Method: as §1

## CC[C@@]1(O)C(=O)OCc2c1cc1n(c2=O)Cc2c-1nc1cc(F)c(C)c3c1c2[C@@H](NC(=O)COCNC(=O)CNC(=O)[C@H](Cc1ccccc1)NC(=O)CNC(=O)CNC(=O)C1CCC(CN2C(=O)C=CC2=O)CC1)CC3 (stereo partly drawn) [LE01] (X3-GGFG[NHCH2OCH2CO]-Exatecan)
anti-B7-H3 antibody P2E5
  Ratio of aggregates: 2.1%
  Whether precipitation: No
[1]
  Ratio of aggregates: 2.0%
  Whether precipitation: No
[2]
  Ratio of aggregates: 0.2%
  Whether precipitation: No

## CCC1(O)C(=O)OC(=O)C2=C1C=C1c3nc4cc(F)c(C)c5c4c(c3CN1C2)C(NC(=O)COCNC(=O)CNC(=O)C(Cc1ccccc1)NC(=O)CNC(=O)CNC(=O)C(CCCCN1C(=O)C=CC1=O)S(=O)(=O)O)CC5 (stereo not drawn) [LE02]
anti-B7-H3 antibody P2E5
  Ratio of aggregates: 1.3%
  Whether precipitation: No
[1]
  Ratio of aggregates: 1.8%
  Whether precipitation: No
[2]
  Ratio of aggregates: 0.2%
  Whether precipitation: No

## CCC1(O)C(=O)OC(=O)C2=C1C=C1c3nc4cc(F)c(C)c5c4c(c3CN1C2)C(NC(=O)COCNC(=O)CNC(=O)C(Cc1ccccc1)NC(=O)CNC(=O)CNC(=O)C(CN)N1C(=O)C=CC1=O)CC5 (stereo not drawn) [LE03]
anti-B7-H3 antibody P2E5
  Ratio of aggregates: 1.1%
  Whether precipitation: No
[1]
  Ratio of aggregates: 1.5%
  Whether precipitation: No
[2]
  Ratio of aggregates: 0.2%
  Whether precipitation: No

## CCC1(O)C(=O)OC(=O)C2=C1C=C1c3nc4cc(F)c(C)c5c4c(c3CN1C2)C(NC(=O)COCNC(=O)CNC(=O)C(Cc1ccccc1)NC(=O)CNC(=O)CNC(=O)CCOCCOCCOCCOCCOCCOCCOCCOCCN1C(=O)C=CC1=O)CC5 (stereo not drawn) [LE04]
anti-B7-H3 antibody P2E5
  Ratio of aggregates: 2.5%
  Whether precipitation: No
[1]
  Ratio of aggregates: 2.1%
  Whether precipitation: No
[2]
  Ratio of aggregates: 0.1%
  Whether precipitation: No

## CC[C@@]1(O)C(=O)OCc2c1cc1n(c2=O)Cc2c-1nc1cc(F)c(C)c3c1c2[C@@H](NC(=O)COCNC(=O)CNC(=O)[C@H](Cc1ccccc1)NC(=O)CNC(=O)CNC(=O)CCCCCN1C(=O)C=C(Br)C1=O)CC3 [LE05] (X1-GGFG[NHCH2OCH2CO]-Exatecan)
anti-B7-H3 antibody P2E5
  Ratio of aggregates: 1.6%
  Whether precipitation: No
[1]
  Ratio of aggregates: 2.3%
  Whether precipitation: No
[2]
  Ratio of aggregates: 0.1%
  Whether precipitation: No

## CC[C@@]1(O)C(=O)OC(=O)C2=C1C=C1c3nc4cc(F)c(C)c5c4c(c3CN1C2)[C@@H](NC(=O)COCNC(=O)CNC(=O)[C@H](Cc1ccccc1)NC(=O)CNC(=O)CNC(=O)[C@H](CCCCN)NC(=O)CCCCCN1C(=O)C=CC1=O)CC5 [LE06] ({Hexanoyl(6-maleimido)}-KGGFG[NHCH2OCH2CO]-X2)
anti-B7-H3 antibody P2E5
  Ratio of aggregates: 1.2%
  Whether precipitation: No
[1]
  Ratio of aggregates: 1.7%
  Whether precipitation: No
[2]
  Ratio of aggregates: 0.5%
  Whether precipitation: No

## CC[C@@]1(O)C(=O)OCc2c1cc1n(c2=O)Cc2c-1nc1cc(F)c(C)c3c1c2[C@@H](NC(=O)COCNC(=O)CNC(=O)[C@H](Cc1ccccc1)NC(=O)CNC(=O)[C@H](CCCCN)NC(=O)CCCCCN1C(=O)C=CC1=O)CC3.O=C(O)C(F)(F)F [LE07] ({Hexanoyl(6-maleimido)}-KGFG[NHCH2OCH2CO]-Exatecan)
anti-B7-H3 antibody P2E5
  Ratio of aggregates: 1.3%
  Whether precipitation: No
[1]
  Ratio of aggregates: 1.6%
  Whether precipitation: No
[2]
  Ratio of aggregates: 0.5%
  Whether precipitation: No

## CC[C@@]1(O)C(=O)OC(=O)C2=C1C=C1c3nc4cc(F)c(C)c5c4c(c3CN1C2)[C@@H](NC(=O)COCN(CCN(C)C)C(=O)OCc1ccc(NC(=O)[C@H](C)NC(=O)[C@@H](NC(=O)CCCCCN2C(=O)C=CC2=O)C(C)C)cc1)CC5 [LE13]
anti-B7-H3 antibody P2E5
  Ratio of aggregates: 1.5%
  Whether precipitation: No
[1]
  Ratio of aggregates: 2.3%
  Whether precipitation: No
[2]
  Ratio of aggregates: 0.1%
  Whether precipitation: No

## CC[C@@]1(O)C(=O)OC(=O)C2=C1C=C1c3nc4cc(F)c(C)c5c4c(c3CN1C2)[C@@H](NC(=O)COCN(CCS(C)(=O)=O)C(=O)OCc1ccc(NC(=O)[C@H](C)NC(=O)[C@@H](NC(=O)C(CCCCN2C(=O)C=CC2=O)S(=O)(=O)O)C(C)C)cc1)CC5 (stereo partly drawn) [LE15]
anti-B7-H3 antibody P2E5
  Ratio of aggregates: 2.1%
  Whether precipitation: No
[1]
  Ratio of aggregates: 1.6%
  Whether precipitation: No
[2]
  Ratio of aggregates: 0.2%
  Whether precipitation: No

## CC[C@@]1(O)C(=O)OC(=O)C2=C1C=C1c3nc4cc(F)c(C)c5c4c(c3CN1C2)[C@@H](NC(=O)COCN(CCS(C)(=O)=O)C(=O)OCc1ccc(NC(=O)[C@H](C)NC(=O)[C@@H](NC(=O)C2CCC(CN3C(=O)C=CC3=O)CC2)C(C)C)cc1)CC5 (stereo partly drawn) [LE16]
anti-B7-H3 antibody P2E5
  Ratio of aggregates: 2.0%
  Whether precipitation: No
[1]
  Ratio of aggregates: 1.5%
  Whether precipitation: No
[2]
  Ratio of aggregates: 0.5%
  Whether precipitation: No

## CC[C@@]1(O)C(=O)OC(=O)C2=C1C=C1c3nc4cc(F)c(C)c5c4c(c3CN1C2)[C@@H](NC(=O)COCN(CCN(C)C)C(=O)OCc1ccc(NC(=O)[C@H](C)NC(=O)[C@@H](NC(=O)C2CCC(CN3C(=O)C=CC3=O)CC2)C(C)C)cc1)CC5 (stereo partly drawn) [LE17]
anti-B7-H3 antibody P2E5
  Ratio of aggregates: 1.5%
  Whether precipitation: No
[1]
  Ratio of aggregates: 1.6%
  Whether precipitation: No
[2]
  Ratio of aggregates: 0.1%
  Whether precipitation: No

## CC[C@@]1(O)C(=O)OC(=O)C2=C1C=C1c3nc4cc(F)c(C)c5c4c(c3CN1C2)[C@@H](NC(=O)COCN(CCS(C)(=O)=O)C(=O)OCc1ccc(NC(=O)[C@H](C)NC(=O)[C@@H](NC(=O)CCCn2cc(CNC3CCC(CN4C(=O)C=CC4=O)CC3)nn2)C(C)C)cc1)CC5 (stereo partly drawn) [LE18]
anti-B7-H3 antibody P2E5
  Ratio of aggregates: 1.6%
  Whether precipitation: No
[1]
  Ratio of aggregates: 2.1%
  Whether precipitation: No
[2]
  Ratio of aggregates: 0.1%
  Whether precipitation: No

## CC[C@@]1(O)C(=O)OC(=O)C2=C1C=C1c3nc4cc(F)c(C)c5c4c(c3CN1C2)[C@@H](NC(=O)COCN(CCS(C)(=O)=O)C(=O)OCc1ccc(NC(=O)[C@H](C)NC(=O)[C@@H](NC(=O)CCCn2cc(CNC(=O)CCCCCN3C(=O)C=CC3=O)nn2)C(C)C)cc1)CC5 [LE19]
anti-B7-H3 antibody P2E5
  Ratio of aggregates: 1.2%
  Whether precipitation: No
[1]
  Ratio of aggregates: 1.4%
  Whether precipitation: No
[2]
  Ratio of aggregates: 0.2%
  Whether precipitation: No

## CC[C@@]1(OCN(CCS(C)(=O)=O)C(=O)OCc2ccc(NC(=O)[C@H](C)NC(=O)[C@@H](NC(=O)CCCCCN3C(=O)C=CC3=O)C(C)C)cc2)C(=O)OCc2c1cc1n(c2=O)Cc2c-1nc1cc(F)c(C)c3c1c2[C@@H](NC(=O)CO)CC3 [LE21]
anti-B7-H3 antibody P2E5
  Ratio of aggregates: 2.2%
  Whether precipitation: No
[1]
  Ratio of aggregates: 2.3%
  Whether precipitation: No
[2]
  Ratio of aggregates: 0.2%
  Whether precipitation: No

## CC[C@@]1(OCN(CCN(C)C)C(=O)OCc2ccc(NC(=O)[C@H](C)NC(=O)[C@@H](NC(=O)CCCCCN3C(=O)C=CC3=O)C(C)C)cc2)C(=O)OCc2c1cc1n(c2=O)Cc2c-1nc1cc(F)c(C)c3c1c2[C@@H](NC(=O)CO)CC3 [LE22]
anti-B7-H3 antibody P2E5
  Ratio of aggregates: 2.1%
  Whether precipitation: No
[1]
  Ratio of aggregates: 1.5%
  Whether precipitation: No
[2]
  Ratio of aggregates: 0.5%
  Whether precipitation: No
